# Tested on: Lactobacillus plantarum P6
# Test: Drug resistance determination (E-test strips, MIC)
# Format: cell-based
# Set-up: key to Susceptibility class of P6 to the antibiotic: S: susceptible; I: intermediate; R: resistance
# Conditions: for MIC: Lactiplantibacillus plantarum, P6, read-out: Minimum inhibitory concentration MIC; for Susceptibility of P6 to the antibiotic (in words): summary of Table 3
# Method: The cultured P6 bacteria solution was activated for three generations, and streaked on the MRS solid medium plate, which was then cultured in an anaerobic incubator at 37° C. for 24 hours. A single colony was picked up and dissolved in normal saline to prepare a suspension equivalent to 0.5 […] concentration, which was then coated on an MH solid medium. After drying, ten E-test strips were attached onto the MH solid medium, and cultured at 37° C. for 24-48 hours. The MIC value (minimum inhibitory concentration value) was determined according to the inhibition zone diameter. Escherichia coli ATCC25922 and Staphylococcus aureus ATCC25923 were used as quality-control strains. Quality-control strains were used as control for each batch test, and the MIC of the quality-control strains was required to be within the range specified by CLSI (Clinical and Laboratory Standards […]). An MH solid plate without antibiotics was used as blank control.
# [1] = E-test, MH solid medium, 37° C., 24-48 hours
SMILES,MIC [1] [µg/mL],Susceptibility of P6 to the antibiotic (in words),Minimum inhibitory concentration MIC [1] [µg/mL],"Susceptibility class of P6 to the antibiotic (E-test, class after the slash in the MIC cell)"
CC1(C)S[C@@H]2[C@H](NC(=O)[C@H](N)c3ccccc3)C(=O)N2[C@H]1C(=O)O [ampicillin],1.5,extremely susceptible,–,–
NCC[C@H](O)C(=O)N[C@@H]1C[C@H](N)[C@@H](O[C@H]2O[C@H](CN)[C@@H](O)[C@H](O)[C@H]2O)[C@H](O)[C@H]1O[C@H]1O[C@H](CO)[C@@H](O)[C@H](N)[C@H]1O [amikacin],2,extremely susceptible,–,–
CCC[C@@H]1C[C@@H](C(=O)N[C@@H]([C@H]2O[C@H](SC)[C@H](O)[C@@H](O)[C@H]2O)[C@H](C)Cl)N(C)C1 [clindamycin],0.016,–,–,–
CN(C)[C@@H]1C(O)=C(C(N)=O)C(=O)[C@@]2(O)C(O)=C3C(=O)c4c(O)cccc4[C@@](C)(O)[C@H]3C[C@@H]12 [tetracycline],256,–,–,–
CO/N=C(\C(=O)N[C@@H]1C(=O)N2C(C(=O)O)=C(CSc3nc(=O)c(=O)[nH]n3C)CS[C@H]12)c1csc(N)n1 [ceftriaxone],0.125,extremely susceptible,–,–
CC[C@H]1OC(=O)[C@H](C)[C@@H](O[C@H]2C[C@@](C)(OC)[C@@H](O)[C@H](C)O2)[C@H](C)[C@@H](O[C@@H]2O[C@H](C)C[C@H](N(C)C)[C@H]2O)[C@](C)(O)C[C@@H](C)C(=O)[C@H](C)[C@@H](O)[C@]1(C)O [erythromycin],0.38,extremely susceptible,–,–
O=C(N[C@H](CO)[C@H](O)c1ccc([N+](=O)[O-])cc1)C(Cl)Cl [chloramphenicol],16,intermediately susceptible,–,–
CC1(C)S[C@@H]2[C@H](NC(=O)Cc3ccccc3)C(=O)N2[C@H]1C(=O)O [penicillin G],–,resistant,32,R
"CC[C@H]1OC(=O)[C@H](C)[C@@H](O[C@H]2C[C@@](C)(OC)[C@@H](O)[C@H](C)O2)[C@H](C)[C@@H](O[C@@H]2O[C@H](C)C[C@H](N(C)C)[C@H]2O)[C@](C)(O)C[C@@H](C)CN(C)[C@H](C)[C@@H](O)[C@]1(C)O [azithromycin, Azithromycin]",0.094,extremely susceptible,–,–

# Reference: patent US12389930B2, “Breast milk-derived Lactobacillus plantarum and use thereof” (Beijing Sanyuan Foods Co., Ltd., priority 2020, dated 2025)
